The record followed here is patent US9421204B2, “Oligomer modified diaromatic substituted compounds” (priority 2010, dated 2016).

The nature of one data set: in vitro. It is filed as in vitro ADME. Particulars: human. The procedure:
Each determination was performed in duplicate.
Vr is the volume of the receiver compartment in cm^3.
Vd is the volume of the donor compartment in cm^3.
A is the area of the cell monolayer (1.13 cm^2 for 12-well Transwell®).
CN is the nominal dosing concentration of the dosing solution in μM.
CA is the average of the nominal dosing concentration and the measured 120 minute donor concentration in μM.
Cr^final is the receiver concentration in μM at the end of the incubation period.
Cd^final is the concentration of the donor in μM at the end of the incubation period.

In a further data set the test system is HIV-1RF. Kind of data set: Anti-HIV-1 cytoprotection assay in CEM-SS cells. It is filed as cell-based. The method, then: Cell Preparation—CEM-SS cells were passaged in T-75 flasks prior to use in the antiviral assay. On the day preceding the assay, the cells were split 1:2 to assure they were in an exponential growth phase at the time of infection. Total cell and viability quantification was performed using a hemocytometer and Trypan Blue dye exclusion. […] The cells were resuspended at 5×10^4 cells per ml in tissue culture medium and added to the drug containing microtiter plates in a volume of 50 μL.
Virus Preparation—The virus used for the assay was the lymphocyte-tropic virus strain HIV-IRF. The virus was obtained from the NIH AIDS Research and Reference Reagent Program and stock virus pools were produced in CEM-SS cells. A pretitred aliquot of virus was removed from the freezer (−80° C.) and allowed to thaw slowly to room temperature in a biological safety cabinet.
(§1) Plate Format—Each plate contains cell control wells (cells only), virus control wells (cells plus virus), drug toxicity wells (cells plus drug only), drug colorimetric control wells (drug only) as well as experimental wells (drug plus cells plus virus). Samples were tested in triplicate with eleven half-log dilutions per compound.
(§2) Efficacy and Toxicity XTT—Following incubation at 37° C. in a 5% CO2 incubator, the test plates were stained with the tetrazolium dye XTT (2,3-bis(2-methoxy-4-nitro-5-sulfophenyl)-5-[(phenylamino)carbonyl]-2H-tetrazolium hydroxide). XTT-tetrazolium is metabolized by the mitochondrial enzymes of metabolically active cells to a soluble formazan product, allowing rapid quantitative analysis of the inhibition of HIV induced cell killing by anti-HIV test substances. XTT solution was prepared daily as a stock of 1 mg/mL in RPMI1640. Phenazine methosulfate (PMS) solution was prepared at 0.15 mg/mL in PBS and stored in the dark at −20° C. XTT/PMS stock was prepared immediately before use by adding 40 μL of PMS per ml of XTT solution. Fifty microliters of XTT/PMS was added to each well of the plate and the plate was re-incubated for 4 hours at 37° C. Plates were sealed with adhesive plate sealers and shaken gently or inverted several times to mix the soluble fosmazan product and the plate was read spectrophotometrically at 450/650 nm with a Molecular Devices Vmax plate reader.
Anti-HIV-1 Cytopathic Effects Inhibition Assay Evaluations: Eight compounds were evaluated against the RF strain of HIV-1 in CEM-SS cells using a 12 concentration dose response curve.
(§3) Data Analysis—Raw data was collected from the Softmax Pro 4.6 software and imported into a Excel XLFit4 spreadsheet for analysis by four parameter curve fit calculations. Both antiviral activity and toxicity are calculated.

Data set [1] in a line: Toxicity XTT in CEM-SS cells (cytoprotection assay). The class given is cell-based. Conditions: human, CEM-SS cells, XTT; read-out: CEM-SS TC50. The procedure: Cell Preparation—CEM-SS cells were passaged in T-75 flasks prior to use in the antiviral assay. On the day preceding the assay, the cells were split 1:2 to assure they were in an exponential growth phase at the time of infection. Total cell and viability quantification was performed using a hemocytometer and Trypan Blue dye exclusion. Cell viability was greater than 95% for the cells to be utilized in the assay. The cells were resuspended at 5×10^4 cells per ml in tissue culture medium and added to the drug containing microtiter plates in a volume of 50 μL.
as §1, §2, §3
Background: Tetrazolium assays rely on reduction of a dye to a coloured formazan, in cell work by metabolically active cells.

In a further data set the target is Wild Type RT (Human immunodeficiency virus type 1 group M subtype B, UniProt P04585). Description: HIV-1 Reverse Transcriptase Inhibition Assay. Conditions: Wild Type RT IC50. It is filed as biochemical. The method, then: The following materials were removed from the freezer and were stored on wet ice (dGTP, ^32P, purified enzyme extract, rCdG, dGTP, DNA). Test compounds were evaluated at a high test of 100 μM diluted in dH2O and if the stock solution was turbid, 1:1000 Triton-X was added to the stock solution. Thirty microliters (30 μL) of each dilution was then transferred in duplicate to the appropriate well of a 96-well plate. The positive and negative control wells each received 30 μL of dH2O instead of the compound. A 2× buffer was prepared in the following manner: 125 μL 2M Tris pH 8.0, 250 μL 3M KCl, 80 μL 1 M MgC12, 10 μL 2 M DTT, 40 μL 25 U/mL rCdG, 100 μL 1 mM dGTP, 10 μL 800 Ci/mMol alpha ^32P:dG TP, and 4.4 mL dH2O. Fifty microliters (50 μL) of 2× buffer was added to every well of the plate. BSA was diluted 1:100 and Triton-X 1:1000 in dH2O and the enzyme was added to the mixture at a 1:400 dilution. Twenty microliters (20 μL) of the enzyme solution was added to all of the wells of the plate except the negative control wells. Distilled water was used instead of enzyme in these wells. The plate was incubated at 37° C. for 30 minutes. Following incubation, 10 μL of 10 mg/mL DNA (MB-grade fish sperm) was added to each well, followed by 150 μL of cold 10% TCA in each well. The plate was incubated at room temperature for approximately 15 minutes in order to allow for precipitation of the samples. Following the incubation the contents were transferred to the appropriate filter plate. The plate was placed on the vacuum manifold and pushed firmly to induce suction. Wells were rinsed with 200 μL of cold TCA. Again, the plate was pushed down firmly and vacuum suction was applied. Once all of the liquid was aspirated from the filter plate, it was removed from the manifold and residual liquid was blotted from the bottom of the plastic base. The filtered wells were separated from the plastic base and the wells were blotted on clean, absorbent paper. The filtered wells were pushed into the cassette and a sheet of Millipore multiscreen tape was placed on the bottom of a Wallace Microbeta cassette covering all of the holes. Twenty microliters (20 μL) of Wallace Supermix Scintillant was added to each well and the top of the wells were covered with a sheet of the multiscreen tape. The plate was read on the Wallace MicroBeta counter to measure incorporated ^32P.

A short description of data set [2]: Caco-2 permeability characterization (plate certification). Particulars: human; for Papp A→B: Caco-2, (A-to-B) Papp; for Papp B→A: Caco-2, (B-to-A) Papp; for efflux ratio: Caco-2, Efflux Ratio. The method, then: The objective of this study was to determine the bidirectional Caco-2 permeability of test compounds. Caco-2 monolayers were grown to confluence on collagen-coated, microporous, polycarbonate membranes in 12-well Costar Transwell® plates. Details of the plates and their certification are shown below. The permeability assay buffer for the donor chambers was Hanks Balanced Salt Solution containing 10 mM HEPES and 15 mM glucose (HBSSg) at a pH of 7.4. The buffer in the receiver chambers also contained 1% bovine serum albumin (BSA). The dosing solution concentrations were 10 μM in the assay buffer. Cell monolayers were dosed on the apical side (A to-B) or basolateral side (B-to-A) and incubated at 37° C. with 5% CO2 in a humidified incubator. After 2 hours, aliquots were taken from the receiver and donor chambers. Each determination was performed in duplicate. The lucifer yellow flux was also measured for each monolayer to ensure no damage was inflicted to the cell monolayers during the flux period. All samples were assayed by LC/MS/MS using electrospray ionization.
A general note: Passage across Caco-2 layers is used to estimate intestinal permeability.

Each structure is given as a SMILES string. Where two headings read alike, the source gives them in different places.

For the compound `COCCOCCOCCNc1ccc2[nH]c(C(=O)N3CCN(c4ncccc4NC(C)C)CC3)cc2c1` [5-mPEG3-NH-Delavirdine], the Papp A→B at 2 hours, 10 μM in the data set “in vitro” (Caco-2, pH 7.4, Test 2, 10 μM, 2 hours, pH 7.4, read-out: Average Papp, A→B) was 33.3 ×10⁻⁶ cm/s. In the data set “in vitro” (Caco-2, pH 7.4, Test 2, 10 μM, 2 hours, pH 7.4, read-out: Average Papp, B→A), the Papp B→A at 2 hours, 10 μM turned out to be 41.8 ×10⁻⁶ cm/s. For the same compound, the recovery at 2 h, 10 μM in the data set “in vitro” (Caco-2, pH 7.4, Test 2, 10 μM, 2 hours, read-out: Recovery (%) A→B) amounted to 94%; in “in vitro” (Caco-2, pH 7.4, Test 2, 10 μM, 2 hours, read-out: Recovery (%) B→A), 96%. Further, the efflux ratio at 2 hours, 10 μM in the data set “in vitro” (Caco-2, pH 7.4, Test 2, read-out: Efflux Ratio (B→A/A→B)) came to 1.3. The “Therapeutic Index” value with HIV-1RF (CEM-SS/HIV-1RF) is on record as 212.67. Also, in the data set on HIV-1RF (Human immunodeficiency virus 1, CEM-SS, CEM-SS cells, XTT, read-out: CEM-SS/HIV-1RF EC50), the EC50 worked out at 160 nM. Also, the CC50 in data set [1] was 34900 nM. At Wild Type RT, this compound registered an IC50 of 1000 nM.
On to `C[C@H]1O[C@@H](O[C@H]2[C@@H](O)C[C@H](O[C@H]3[C@@H](O)C[C@H](O[C@H]4CC[C@@]5(C)[C@H](CC[C@@H]6[C@@H]5C[C@@H](O)[C@]5(C)[C@@H](C7=CC(=O)OC7)CC[C@]65O)C4)O[C@@H]3C)O[C@@H]2C)C[C@H](O)[C@@H]1O` [Digoxin], for which the Papp A→B in data set [2] (Test 1, Passage Number 65) turned out to be 0.47 ×10⁻⁶ cm/s; in data set [2] (Test 2, Passage Number 59), 0.65 ×10⁻⁶ cm/s; in data set [2] (Test 2, Passage Number 67), 0.75 ×10⁻⁶ cm/s. For the same compound, the Papp B→A in data set [2] (Test 1, Passage Number 65) worked out at 11 ×10⁻⁶ cm/s; in data set [2] (Test 2, Passage Number 59) it was 16.9 ×10⁻⁶ cm/s; in data set [2] (Test 2, Passage Number 67), 13.4 ×10⁻⁶ cm/s. Besides, the efflux ratio in data set [2] (Test 1, Passage Number 65) amounted to 23; in data set [2] (Test 2, Passage Number 59), 26; in data set [2] (Test 2, Passage Number 67), 18.
`CC(C)NCC(O)COc1cccc2ccccc12` (stereo not shown) [Propranolol]: the Papp in data set [2] (Caco-2, Papp) was 20.8 ×10⁻⁶ cm/s.

One may read the Papp A→B as the apparent permeability from the apical to the basolateral side of a cell layer. By Papp B→A is commonly meant how fast a substance crosses the layer from the basolateral side. One may read the IC50 as the concentration needed to halve the response being measured. As usually defined, the Papp is the rate of passage across a membrane or cell layer, normalised by area and donor concentration.
